# Assays:
# Assay type in all cases: cell-based, Erwinia chrysanthemi
# ELIC WT = target: T1, ELIC WT (Dickeya chrysanthemi, UniProt P0C7B7); experiment: cell-based; conditions: agonist cysteamine
# T1 construct: expressed in transfected cells; host or cells: X. laevis oocytes (cRNA injection, pTLN vector)
# Method: (§1) Constructs containing the gene of either the WT or mutant channels preceded by the signal sequence of the chicken α7nAchR were cloned into the pTLN vector for expression in X. laevis oocytes. After linearization of the plasmid DNA by MluI, capped complementary RNA was transcribed with the mMessage mMachine kit (Ambion) and purified with the RNeasy kit (Qiagen). For expression, 1–50 ng of RNA was injected into defolliculated oocytes. Two-electrode voltage clamp measurements were performed 1 d after injection at 20°C (OC-725B, Warner Instrument Corp.). Currents were recorded in bath solutions containing 10 mM HEPES (pH 7), 130 mM NaCl, and the indicated concentrations of cysteamine and divalent cations. In case of solutions containing Zn^2+, cysteamine was replaced by propylamine. The membrane potential in all dose–response measurements was set to −40 mV. As ELIC is permeable to divalent cations, we tested if endogenous calcium-activated chloride channels affected our measurements. To chelate intracellular calcium ions, the oocytes were incubated for 15 to 30 min in bath solutions lacking divalent ions but containing 10 µM BAPTA-AM.
# ELIC D113A/D158A = target: T2, ELIC D113A/D158A (Dickeya chrysanthemi, UniProt P0C7B7, D113A/D158A/INS163G); experiment: cell-based; conditions: 113A/158A, agonist cysteamine
# T2 construct: expressed in transfected cells; host or cells: X. laevis oocytes
# Method: as §1
# ELIC E150Q = target: T3, ELIC E150Q (Dickeya chrysanthemi, UniProt P0C7B7, E150Q/INS163G); experiment: Two-electrode voltage clamp, ELIC E150Q in oocytes; conditions: agonist cysteamine
# T3 construct: expressed in transfected cells; host or cells: X. laevis oocytes
# Method: as §1
# ELIC R91A = target: T4, ELIC R91A (Dickeya chrysanthemi, UniProt P0C7B7, INS163G/R91A); experiment: Two-electrode voltage clamp, ELIC R91A in oocytes; conditions: R91A, agonist cysteamine
# T4 construct: expressed in transfected cells; host or cells: X. laevis oocytes
# Method: as §1
# ELIC N251A = target: T5, ELIC N251A (Dickeya chrysanthemi, UniProt P0C7B7, N250A); experiment: Two-electrode voltage clamp, ELIC N251A in oocytes; conditions: agonist cysteamine
# T5 construct: expressed in transfected cells; host or cells: X. laevis oocytes
# Method: as §1
# ELIC D86A = target: T6, ELIC D86A (Dickeya chrysanthemi, UniProt P0C7B7, D86A/INS163G); experiment: Two-electrode voltage clamp, ELIC D86A in oocytes; conditions: agonist cysteamine
# T6 construct: expressed in transfected cells; host or cells: X. laevis oocytes
# Method: as §1
# ELIC E150A = target: T7, ELIC E150A (Dickeya chrysanthemi, UniProt P0C7B7, E150A/INS163G); experiment: Two-electrode voltage clamp, ELIC E150A in oocytes; conditions: agonist cysteamine
# T7 construct: expressed in transfected cells; host or cells: X. laevis oocytes
# Method: as §1
# ELIC D158N = target: T8, ELIC D158N (Dickeya chrysanthemi, UniProt P0C7B7, D158N/INS163G); experiment: Two-electrode voltage clamp, ELIC D158N in oocytes; conditions: agonist cysteamine
# T8 construct: expressed in transfected cells; host or cells: X. laevis oocytes
# Method: as §1
# ELIC S84A [1] = target: T9, ELIC S84A (Dickeya chrysanthemi, UniProt P0C7B7, INS163G/S84A); experiment: Two-electrode voltage clamp, ELIC S84A in oocytes; conditions: S84A, agonist cysteamine
# T9 construct: expressed in transfected cells; host or cells: X. laevis oocytes
# Method: as §1
# ELIC S84A [2] = experiment: Two-electrode voltage clamp, ELIC S84A in oocytes; conditions: S84A as printed in the N251A line (r30); Ca^2+ 10 mM; agonist cysteamine
# Method: as §1
# ELIC D113N = target: T10, ELIC D113N (Dickeya chrysanthemi, UniProt P0C7B7, D113N/INS163G); experiment: Two-electrode voltage clamp, ELIC D113N in oocytes; conditions: agonist cysteamine
# T10 construct: expressed in transfected cells; host or cells: X. laevis oocytes
# Method: as §1
# ELIC D158A = target: T11, ELIC D158A (Dickeya chrysanthemi, UniProt P0C7B7, D158A/INS163G); experiment: Two-electrode voltage clamp, ELIC D158A in oocytes; conditions: agonist cysteamine
# T11 construct: expressed in transfected cells; host or cells: X. laevis oocytes
# Method: as §1
# ELIC D113A = target: T12, ELIC D113A (Dickeya chrysanthemi, UniProt P0C7B7, D113A/INS163G); experiment: Two-electrode voltage clamp, ELIC D113A in oocytes; conditions: agonist cysteamine
# T12 construct: expressed in transfected cells; host or cells: X. laevis oocytes
# Method: as §1
smiles,measurement,setting,value
NCCS [cysteamine],EC50,"ELIC WT; WT/0.25Ca^2+, ACh 0 mM",0.64 mM
same,EC50,"ELIC WT; WT/0.25Ca^2+, ACh 1 mM",1.16 mM
same,EC50,"ELIC WT; WT/0.25Ca^2+, ACh 5 mM",3.46 mM
same,EC50,"ELIC WT; WT/0.25Ca^2+, ACh 10 mM",5.08 mM
same,EC50,"ELIC WT; WT/0.5Ca^2+, ACh 0 mM",1 mM
same,EC50,"ELIC WT; WT/0.5Ca^2+, ACh 1 mM",1.83 mM
same,EC50,"ELIC WT; WT/0.5Ca^2+, ACh 5 mM",4.03 mM
same,EC50,"ELIC WT; WT/0.5Ca^2+, ACh 10 mM",8.45 mM
same,EC50,"ELIC WT; WT/1Ca^2+, ACh 0 mM",1.73 mM
same,EC50,"ELIC WT; WT/1Ca^2+, ACh 1 mM",2.68 mM
same,EC50,"ELIC WT; WT/1Ca^2+, ACh 5 mM",5.12 mM
same,EC50,"ELIC WT; WT/1Ca^2+, ACh 10 mM",8.24 mM
same,EC50,"ELIC WT; WT/BAPTA, Ca^2+ 0 mM",0.36 mM
same,EC50,"ELIC WT; WT/BAPTA, Ca^2+ 0.25 mM",0.84 mM
same,EC50,"ELIC WT; WT/BAPTA, Ca^2+ 0.5 mM",1.07 mM
same,EC50,"ELIC WT; WT/BAPTA, Ca^2+ 1.0 mM",2.23 mM
same,EC50,"ELIC WT; WT, ACh 1 mM",0.57 mM
same,EC50,"ELIC WT; WT, ACh 5.0 mM",1.49 mM
same,EC50,"ELIC WT; WT, ACh 10.0 mM",2.25 mM
same,EC50,"ELIC WT; WT, Ba^2+ 1 mM",0.76 mM
same,EC50,"ELIC WT; WT, Ba^2+ 5 mM",2.68 mM
same,EC50,"ELIC WT; WT, Ba^2+ 10 mM",5.27 mM
same,EC50,"ELIC WT; WT, Ca^2+ 0 mM",0.36 mM
same,EC50,"ELIC WT; WT, Ca^2+ 0.1 mM",0.35 mM
same,EC50,"ELIC WT; WT, Ca^2+ 0.25 mM",0.64 mM
same,EC50,"ELIC WT; WT, Ca^2+ 0.5 mM",1 mM
same,EC50,"ELIC WT; WT, Ca^2+ 1.0 mM",1.73 mM
same,EC50,"ELIC WT; WT, Ca^2+ 2.5 mM",2.46 mM
same,EC50,"ELIC WT; WT, Ca^2+ 5.0 mM",4.37 mM
same,EC50,"ELIC WT; WT, Mg^2+ 1 mM",1.04 mM
same,EC50,"ELIC WT; WT, Mg^2+ 5 mM",3.05 mM
same,EC50,"ELIC WT; WT, Mg^2+ 10 mM",5.31 mM
same,EC50,"ELIC WT; WT, Sr^2+ 1 mM",0.75 mM
same,EC50,"ELIC WT; WT, Sr^2+ 5 mM",2.11 mM
same,EC50,"ELIC WT; WT, Sr^2+ 10 mM",3.41 mM
same,EC50,ELIC D113A/D158A; Ba^2+ 1 mM,3.07 mM
same,EC50,ELIC D113A/D158A; Ba^2+ 5 mM,3.07 mM
same,EC50,ELIC D113A/D158A; Ba^2+ 10 mM,5.42 mM
same,EC50,ELIC D113A/D158A; Ca^2+ 0 mM,2.33 mM
same,EC50,ELIC D113A/D158A; Ca^2+ 1 mM,1.59 mM
same,EC50,ELIC D113A/D158A; Ca^2+ 5 mM,1.81 mM
same,EC50,ELIC D113A/D158A; Ca^2+ 10 mM,2.96 mM
same,EC50,ELIC D113A/D158A; Ca^2+ 25 mM,3.35 mM
same,EC50,ELIC E150Q; Ca^2+ 0 mM,2.92 mM
same,EC50,ELIC E150Q; Ca^2+ 1 mM,5.29 mM
same,EC50,ELIC E150Q; Ca^2+ 5 mM,14.6 mM
same,EC50,ELIC E150Q; Ca^2+ 10 mM,21.9 mM
same,EC50,ELIC R91A; ACh 1 mM,0.4 mM
same,EC50,ELIC R91A; ACh 5 mM,0.88 mM
same,EC50,ELIC R91A; ACh 10 mM,1.78 mM
same,EC50,ELIC R91A; Ca^2+ 0 mM,0.09 mM
same,EC50,ELIC R91A; Ca^2+ 0.5 mM,0.24 mM
same,EC50,ELIC R91A; Ca^2+ 1 mM,0.41 mM
same,EC50,ELIC R91A; Ca^2+ 5 mM,0.92 mM
same,EC50,ELIC R91A; TMA 10 mM,0.23 mM
same,EC50,ELIC R91A; TMA 25 mM,0.33 mM
same,EC50,ELIC R91A; TMA 50 mM,0.59 mM
same,EC50,ELIC N251A; Ca^2+ 0 mM,0.29 mM
same,EC50,ELIC N251A; Ca^2+ 1 mM,0.84 mM
same,EC50,ELIC N251A; Ca^2+ 5 mM,1.9 mM
same,EC50,ELIC D86A; Ca^2+ 0 mM,0.57 mM
same,EC50,ELIC D86A; Ca^2+ 1 mM,2.3 mM
same,EC50,ELIC D86A; Ca^2+ 5 mM,5.31 mM
same,EC50,ELIC D86A; Ca^2+ 10 mM,11.2 mM
same,EC50,ELIC E150A; Ca^2+ 0 mM,1.4 mM
same,EC50,ELIC E150A; Ca^2+ 1 mM,2.2 mM
same,EC50,ELIC E150A; Ca^2+ 5 mM,6.1 mM
same,EC50,ELIC E150A; Ca^2+ 10 mM,8.99 mM
same,EC50,ELIC D158N; Ca^2+ 0 mM,3.88 mM
same,EC50,ELIC D158N; Ca^2+ 1 mM,5.61 mM
same,EC50,ELIC D158N; Ca^2+ 5 mM,8.5 mM
same,EC50,ELIC D158N; Ca^2+ 10 mM,11.2 mM
same,EC50,ELIC S84A [1]; Ca^2+ 0 mM,0.36 mM
same,EC50,ELIC S84A [1]; Ca^2+ 1 mM,1.55 mM
same,EC50,ELIC S84A [1]; Ca^2+ 5 mM,2.74 mM
same,EC50,ELIC S84A [1]; Ca^2+ 10 mM,5.43 mM
same,EC50,ELIC S84A [2],5.31 mM
same,EC50,ELIC D113N; Ca^2+ 0 mM,0.92 mM
same,EC50,ELIC D113N; Ca^2+ 1 mM,1.81 mM
same,EC50,ELIC D113N; Ca^2+ 5 mM,5.59 mM
same,EC50,ELIC D113N; Ca^2+ 10 mM,9.78 mM
same,EC50,ELIC D158A; Ca^2+ 0 mM,1.78 mM
same,EC50,ELIC D158A; Ca^2+ 1 mM,1.79 mM
same,EC50,ELIC D158A; Ca^2+ 5 mM,3.33 mM
same,EC50,ELIC D158A; Ca^2+ 10 mM,5.43 mM
same,EC50,ELIC D158A; Ca^2+ 20 mM,9.38 mM
same,EC50,ELIC D113A; Ca^2+ 0 mM,0.95 mM
same,EC50,ELIC D113A; Ca^2+ 1 mM,0.88 mM
same,EC50,ELIC D113A; Ca^2+ 2.5 mM,1.46 mM
same,EC50,ELIC D113A; Ca^2+ 5 mM,1.86 mM
same,EC50,ELIC D113A; Ca^2+ 10 mM,2.9 mM
same,EC50,ELIC D113A; Ca^2+ 25 mM,6.37 mM
